Laboratory results as given in patent US11957687B2 (REGENERON PHARMACEUTICALS, INC., priority 2019, dated 2024).
Where two headings read alike, the source gives them in different places.

Molecular target: HSD17B13 (Homo sapiens (Human), UniProt Q7Z5P4)
Experiment: HSD17B13 enzymatic inhibition assay (150 nM or 50 nM HSD17B13)
Assay type: biochemical
[1] = 150 nM HSD17B13, read-out: Inhibition of 150 nM of HSD17B13 IC50
[2] = 50 nM HSD17B13, read-out: Inhibition of 50 nM of HSD17B13 IC50

HSD17B13, sequence (Q7Z5P4 other isoform, or with tags, fused parts or gaps): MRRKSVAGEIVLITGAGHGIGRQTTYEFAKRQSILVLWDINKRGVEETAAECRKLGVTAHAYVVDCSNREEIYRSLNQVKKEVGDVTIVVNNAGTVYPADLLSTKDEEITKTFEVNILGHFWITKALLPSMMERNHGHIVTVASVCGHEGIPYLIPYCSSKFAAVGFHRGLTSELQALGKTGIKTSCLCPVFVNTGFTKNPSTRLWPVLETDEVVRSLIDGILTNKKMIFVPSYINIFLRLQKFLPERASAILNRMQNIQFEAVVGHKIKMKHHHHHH

Row | SMILES | IC50 [1] | IC50 [2]
1 | COc1cccc(C(NC(=O)c2ccc(C(F)(F)F)[nH]c2=O)c2ccccc2)c1 (stereo not drawn) [Compound 4, N-((3-methoxyphenyl)(phenyl)methyl)-2-oxo-6-(trifluoromethyl)-1,2-dihydropyridine-3-carboxamide] | 4700 nM | 
2 | O=C(NC1c2ccccc2C=Cc2ccccc21)c1ccc(C(F)(F)F)[nH]c1=O [Compound 5A, N-(5H-dibenzo[a,d][7]annulen-5-yl)-2-oxo-6-(trifluoromethyl)-1,2-dihydropyridine-3-carboxamide] |  | 1520 nM
3 | COc1ccccc1C(NC(=O)c1ccc(C(F)(F)F)[nH]c1=O)c1ccccc1 (stereo not drawn) [Compound 8, N-((2-methoxyphenyl)(phenyl)methyl)-2-oxo-6-(trifluoromethyl)-1,2-dihydropyridine-3-carboxamide] | 3230 nM | 1610 nM
4 | O=C(NC1c2ccc(OC(F)(F)F)cc2-c2cc(OC(F)(F)F)ccc21)c1ccc(C(F)(F)F)[nH]c1=O [Compound 8A, N-(3,6-bis(trifluoromethoxy)-9H-fluoren-9-yl)-2-oxo-6-(trifluoromethyl)-1,2-dihydropyridine-3-carboxamide] |  | 6310 nM
5 | O=C(NC1c2ccccc2Sc2ccccc21)c1ccc(C(F)(F)F)[nH]c1=O [Compound 10A, 2-oxo-N-(9H-thioxanthen-9-yl)-6-(trifluoromethyl)-1,2-dihydropyridine-3-carboxamide] |  | 1460 nM
6 | O=C(NC1c2ccccc2S(=O)(=O)c2ccccc21)c1ccc(C(F)(F)F)[nH]c1=O [Compound 11A, N-(10,10-dioxido-9H-thioxanthen-9-yl)-2-oxo-6-(trifluoromethyl)-1,2-dihydropyridine-3-carboxamide] |  | 1190 nM
7 | Cc1ccc(C(NC(=O)c2cnc(C(F)(F)F)[nH]c2=O)c2ccc(C)cc2)cc1 [Compound 13A, N-(di-p-tolylmethyl)-6-oxo-2-(trifluoromethyl)-1,6-dihydropyrimidine-5-carboxamide] |  | 1310 nM
8 | O=C(NC1c2ccc(Cl)cc2-c2cc(Cl)ccc21)c1ccc(C(F)(F)F)[nH]c1=O [Compound 14A, N-(3,6-dichloro-9H-fluoren-9-yl)-2-oxo-6-(trifluoromethyl)-1,2-dihydropyridine-3-carboxamide] |  | 4280 nM
9 | Cc1ccc(C(NC(=O)c2cnc(C(F)(F)F)[nH]c2=O)c2ccccc2)cc1C (stereo not drawn) [Compound 18A, N-((3,4-dimethylphenyl)(phenyl)methyl)-6-oxo-2-(trifluoromethyl)-1,6-dihydropyrimidine-5-carboxamide] |  | 2620 nM
10 | CC(NC(=O)c1ccc(C(F)(F)F)[nH]c1=O)(c1ccc(O)cc1)c1ccc(O)cc1 [Compound 21A, N-(1,1-bis(4-hydroxyphenyl)ethyl)-2-oxo-6-(trifluoromethyl)-1,2-dihydropyridine-3-carboxamide] |  | 1850 nM
11 | CCC(NC(=O)c1ccc(C(F)(F)F)[nH]c1=O)c1ccc(Cl)cc1 (stereo not drawn) [Compound 22A, N-(1-(4-chlorophenyl)propyl)-2-oxo-6-(trifluoromethyl)-1,2-dihydropyridine-3-carboxamide] |  | 2960 nM

Other lines, results leading:

Row | IC50 [1] | IC50 [2] | SMILES
12 | 4520 nM |  | O=C(NC(c1ccccc1)c1cccc(Cl)c1)c1ccc(C(F)(F)F)[nH]c1=O (stereo not drawn) [Compound 6, N-((3-chlorophenyl)(phenyl)methyl)-2-oxo-6-(trifluoromethyl)-1,2-dihydropyridine-3-carboxamide]
13 |  | 5150 nM | Nc1ccc(C(NC(=O)c2ccc(C(F)(F)F)[nH]c2=O)c2ccccc2)cc1 (stereo not drawn) [Compound 6A, N-((4-aminophenyl)(phenyl)methyl)-2-oxo-6-(trifluoromethyl)-1,2-dihydropyridine-3-carboxamide]
14 |  | 1200 nM | O=C(NC(c1ccccc1)c1ccc(N2CCCCC2)cc1)c1ccc(C(F)(F)F)[nH]c1=O (stereo not drawn) [Compound 9A, 2-oxo-N-(phenyl(4-(piperidin-1-yl)phenyl)methyl)-6-(trifluoromethyl)-1,2-dihydropyridine-3-carboxamide]
15 |  | 670 nM | O=C(NC(c1ccc(Br)cc1)c1ccc(Br)cc1)c1ccc(C(F)(F)F)[nH]c1=O [Compound 10, N-(bis(4-bromophenyl)methyl)-2-oxo-6-(trifluoromethyl)-1,2-dihydropyridine-3-carboxamide]
16 |  | 1090 nM | O=C(NC(c1ccc(OC(F)(F)F)cc1)c1ccc(OC(F)(F)F)cc1)c1ccc(C(F)(F)F)[nH]c1=O [Compound 11, N-(bis(4-(trifluoromethoxy)phenyl)methyl)-2-oxo-6-(trifluoromethyl)-1,2-dihydropyridine-3-carboxamide]
17 |  | 3640 nM | O=C(NC(c1ccccc1)c1ccc(O)c(F)c1)c1ccc(C(F)(F)F)[nH]c1=O (stereo not drawn) [Compound 16A, N-((3-fluoro-4-hydroxyphenyl)(phenyl)methyl)-2-oxo-6-(trifluoromethyl)-1,2-dihydropyridine-3-carboxamide]
18 |  | 3100 nM | O=C(NC(c1ccccc1)c1ccccc1C(F)(F)F)c1ccc(C(F)(F)F)[nH]c1=O (stereo not drawn) [Compound 17A, 2-oxo-N-(phenyl(2-(trifluoromethyl)phenyl)methyl)-6-(trifluoromethyl)-1,2-dihydropyridine-3-carboxamide]
19 | 2110 nM |  | Cc1cccc(C(NC(=O)c2ccc(C(F)(F)F)[nH]c2=O)c2ccccc2)c1 (stereo not drawn) [Compound 20, N-(phenyl(m-tolyl)methyl)-2-oxo-6-(trifluoromethyl)-1,2-dihydropyridine-3-carboxamide]
20 |  | 4240 nM | O=C(NC(c1ccc(O)cc1)c1ccc(O)cc1)c1ccc(C(F)(F)F)[nH]c1=O [Compound 23, N-(bis(4-hydroxyphenyl)methyl)-2-oxo-6-(trifluoromethyl)-1,2-dihydropyridine-3-carboxamide]
21 |  | 990 nM | O=C(NC(c1ccc(CC(F)(F)F)cc1)c1ccc(CC(F)(F)F)cc1)c1ccc(C(F)(F)F)[nH]c1=O [Compound 23A, N-(bis(4-(2,2,2-trifluoroethyl)phenyl)methyl)-2-oxo-6-(trifluoromethyl)-1,2-dihydropyridine-3-carboxamide]
22 |  | 470 nM | C/C=C/c1ccc(C(NC(=O)c2ccc(C(F)(F)F)[nH]c2=O)c2ccccc2)cc1 (stereo not drawn) [Compound 29, (E)-2-oxo-N-(phenyl(4-(prop-1-en-1-yl)phenyl)methyl)-6-(trifluoromethyl)-1,2-dihydropyridine-3-carboxamide]
23 |  | 750 nM | C=C(C)c1ccc(C(NC(=O)c2ccc(C(F)(F)F)[nH]c2=O)c2ccccc2)cc1 (stereo not drawn) [Compound 30, 2-oxo-N-(phenyl(4-(prop-1-en-2-yl)phenyl)methyl)-6-(trifluoromethyl)-1,2-dihydropyridine-3-carboxamide]
24 |  | 460 nM | O=C(NC(c1ccccc1)c1ccc(C2=CCCC2)cc1)c1ccc(C(F)(F)F)[nH]c1=O (stereo not drawn) [Compound 31, N-((4-(cyclopent-1-en-1-yl)phenyl)(phenyl)methyl)-2-oxo-6-(trifluoromethyl)-1,2-dihydropyridine-3-carboxamide]
25 |  | 400 nM | O=C(NC(c1ccccc1)c1ccc(C2=CCCCC2)cc1)c1ccc(C(F)(F)F)[nH]c1=O (stereo not drawn) [Compound 32, 2-oxo-N-(phenyl(2′,3′,4,5′-tetrahydro-[1,1′-biphenyl]-4-yl)methyl)-6-(trifluoromethyl)-1,2-dihydropyridine-3-carboxamide]
26 |  | 820 nM | O=C(NC(c1ccccc1)c1ccc(C2=CCOCC2)cc1)c1ccc(C(F)(F)F)[nH]c1=O (stereo not drawn) [Compound 33, N-((4-(3,6-dihydro-2H-pyran-4-yl)phenyl)(phenyl)methyl)-2-oxo-6-(trifluoromethyl)-1,2-dihydropyridine-3-carboxamide]
